Experimental data taken from PubChem BioAssay (NCI).
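Each compound was tested at five concentrations against cells in 96-well plates for 48 hours. GI50: concentration for 50% inhibition of growth. Definition used: TGI = concentration required for complete inhibition of growth.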

Columns and labels:
Assay in all cases: NCI tumour cell line growth inhibition, 48 h
A498 renal = system: A498 renal
BT-549 breast = system: BT-549 breast
DU-145 prostate = system: DU-145 prostate
HCC-2998 colon = system: HCC-2998 colon
HOP-92 NSCLC = system: HOP-92 NSCLC
HS 578T breast = system: HS 578T breast
KM12 colon = system: KM12 colon
M14 melanoma = system: M14 melanoma
MDA-MB-231 breast = system: MDA-MB-231 breast
OVCAR-5 ovarian = system: OVCAR-5 ovarian
PC-3 prostate = system: PC-3 prostate
SF-295 CNS = system: SF-295 CNS
SF-539 CNS = system: SF-539 CNS
SK-OV-3 ovarian = system: SK-OV-3 ovarian
SNB-75 CNS = system: SNB-75 CNS
TK-10 renal = system: TK-10 renal
UACC-62 melanoma = system: UACC-62 melanoma
786-0 renal = system: 786-0 renal
A549 NSCLC = system: A549 NSCLC
CCRF-CEM leukemia = system: CCRF-CEM leukemia
COLO 205 colon = system: COLO 205 colon
EKVX NSCLC = system: EKVX NSCLC
HCT-116 colon = system: HCT-116 colon
HCT-15 colon = system: HCT-15 colon
HL-60(TB) leukemia = system: HL-60(TB) leukemia
HOP-62 NSCLC = system: HOP-62 NSCLC
HT29 colon = system: HT29 colon
IGROV1 ovarian = system: IGROV1 ovarian
K-562 leukemia = system: K-562 leukemia
LOX IMVI melanoma = system: LOX IMVI melanoma
MCF7 breast = system: MCF7 breast
MDA-MB-435 = system: MDA-MB-435
MOLT-4 leukemia = system: MOLT-4 leukemia
NCI-H23 lung = system: NCI-H23 lung
NCI/ADR-RES ovarian = system: NCI/ADR-RES ovarian
OVCAR-3 ovarian = system: OVCAR-3 ovarian
OVCAR-4 ovarian = system: OVCAR-4 ovarian
RPMI-8226 leukemia = system: RPMI-8226 leukemia
RXF 393 renal = system: RXF 393 renal
SF-268 CNS = system: SF-268 CNS
SK-MEL-2 melanoma = system: SK-MEL-2 melanoma
SK-MEL-28 melanoma = system: SK-MEL-28 melanoma
SK-MEL-5 melanoma = system: SK-MEL-5 melanoma
SN12C renal = system: SN12C renal
SNB-19 CNS = system: SNB-19 CNS
SW-620 colon = system: SW-620 colon
T-47D breast = system: T-47D breast
U251 CNS = system: U251 CNS
ACHN renal = system: ACHN renal
CAKI-1 renal = system: CAKI-1 renal
MALME-3M melanoma = system: MALME-3M melanoma
NCI-H226 lung = system: NCI-H226 lung
NCI-H460 lung = system: NCI-H460 lung
NCI-H522 lung = system: NCI-H522 lung
OVCAR-8 ovarian = system: OVCAR-8 ovarian
UACC-257 melanoma = system: UACC-257 melanoma
UO-31 renal = system: UO-31 renal

## O=C1/C(=C\c2cn(CC(O)CN3CCCCC3)c3ccccc23)c2ccccc2N1c1c(Cl)cccc1Cl (stereo not drawn)
A498 renal
  GI50: 1.7 µM
  TGI: 3.24 µM
BT-549 breast
  GI50: 1.71 µM
  TGI: 3.18 µM
DU-145 prostate
  GI50: 1.88 µM
  TGI: 3.32 µM
HCC-2998 colon
  GI50: 1.73 µM
  TGI: 3.16 µM
HOP-92 NSCLC
  GI50: 1.59 µM
  TGI: 3.2 µM
HS 578T breast
  GI50: 2.27 µM
  TGI: 5.78 µM
KM12 colon
  GI50: 1.89 µM
  TGI: 3.37 µM
M14 melanoma
  GI50: 1.66 µM
  TGI: 3.1 µM
MDA-MB-231 breast
  GI50: 1.79 µM
  TGI: 3.21 µM
OVCAR-5 ovarian
  GI50: 1.57 µM
  TGI: 2.92 µM
PC-3 prostate
  GI50: 1.41 µM
  TGI: 2.81 µM
SF-295 CNS
  GI50: 1.8 µM
  TGI: 3.3 µM
SF-539 CNS
  GI50: 1.68 µM
  TGI: 3.18 µM
SK-OV-3 ovarian
  GI50: 1.63 µM
  TGI: 3.13 µM
SNB-75 CNS
  GI50: 1.3 µM
  TGI: 2.63 µM
TK-10 renal
  GI50: 1.82 µM
  TGI: 3.29 µM
UACC-62 melanoma
  GI50: 1.76 µM
  TGI: 3.2 µM

## COC12C=CC(CC1)C(C)(C)C2O (stereo not drawn)
SNB-75 CNS
  TGI: > 100 µM

## ClC1=C(Cl)C(Cl)=C(Cl)C1=Cc1ccc(Cl)cc1Cl
786-0 renal
  GI50: 0.241 µM
  TGI: 0.618 µM
A498 renal
  GI50: 1.27 µM
  TGI: 2.6 µM
A549 NSCLC
  GI50: 1.7 µM
  TGI: 4.52 µM
BT-549 breast
  GI50: 0.277 µM
  TGI: 0.809 µM
CCRF-CEM leukemia
  GI50: 0.352 µM
  TGI: 3.98 µM
COLO 205 colon
  GI50: 0.486 µM
  TGI: 2.25 µM
DU-145 prostate
  GI50: 0.718 µM
  TGI: 3.52 µM
EKVX NSCLC
  GI50: 0.523 µM
  TGI: 4.37 µM
HCC-2998 colon
  GI50: 0.341 µM
  TGI: 1.14 µM
HCT-116 colon
  GI50: 0.206 µM
  TGI: 0.494 µM
HCT-15 colon
  GI50: 0.3 µM
  TGI: 1.3 µM
HL-60(TB) leukemia
  GI50: 0.403 µM
  TGI: 3.1 µM
HOP-62 NSCLC
  GI50: 0.396 µM
  TGI: 3.57 µM
HOP-92 NSCLC
  GI50: 0.633 µM
  TGI: 2.56 µM
HS 578T breast
  GI50: 0.522 µM
  TGI: > 100 µM
HT29 colon
  GI50: 0.33 µM
  TGI: 6.4 µM
IGROV1 ovarian
  GI50: 0.404 µM
  TGI: 3.19 µM
K-562 leukemia
  GI50: 0.341 µM
  TGI: 2 µM
KM12 colon
  GI50: 0.686 µM
  TGI: 2.08 µM
LOX IMVI melanoma
  GI50: 0.184 µM
  TGI: 0.384 µM
M14 melanoma
  GI50: 0.234 µM
  TGI: 0.635 µM
MCF7 breast
  GI50: 0.319 µM
  TGI: > 100 µM
MDA-MB-231 breast
  GI50: 0.29 µM
  TGI: 1.15 µM
MDA-MB-435
  GI50: 0.521 µM
  TGI: 2.05 µM
MOLT-4 leukemia
  GI50: 0.3 µM
  TGI: 0.98 µM
NCI-H23 lung
  GI50: 0.281 µM
  TGI: 1.14 µM
NCI/ADR-RES ovarian
  GI50: 0.276 µM
  TGI: 0.926 µM
OVCAR-3 ovarian
  GI50: 0.274 µM
  TGI: 0.857 µM
OVCAR-4 ovarian
  GI50: 0.53 µM
  TGI: 5.89 µM
OVCAR-5 ovarian
  GI50: 1.33 µM
  TGI: 4.01 µM
PC-3 prostate
  GI50: 0.393 µM
  TGI: 1.64 µM
RPMI-8226 leukemia
  GI50: 0.355 µM
  TGI: 1.99 µM
RXF 393 renal
  GI50: 0.215 µM
  TGI: 0.477 µM
SF-268 CNS
  GI50: 0.308 µM
  TGI: 1.43 µM
SF-295 CNS
  GI50: 0.733 µM
  TGI: 3.08 µM
SF-539 CNS
  GI50: 0.353 µM
  TGI: 1.4 µM
SK-MEL-2 melanoma
  GI50: 1.51 µM
  TGI: 4.49 µM
SK-MEL-28 melanoma
  GI50: 0.567 µM
  TGI: 2.8 µM
SK-MEL-5 melanoma
  GI50: 1.04 µM
  TGI: 2.26 µM
SK-OV-3 ovarian
  GI50: 1.74 µM
  TGI: 5.98 µM
SN12C renal
  GI50: 0.254 µM
  TGI: 0.743 µM
SNB-19 CNS
  GI50: 0.811 µM
  TGI: 2.93 µM
SNB-75 CNS
  GI50: 1.9 µM
  TGI: 5.51 µM
SW-620 colon
  GI50: 0.272 µM
  TGI: 0.717 µM
T-47D breast
  GI50: 0.252 µM
  TGI: 1.3 µM
U251 CNS
  GI50: 0.39 µM
  TGI: 1.49 µM
UACC-62 melanoma
  GI50: 0.192 µM
  TGI: 0.495 µM

## COC(=O)C1=C2CO[C@@H]3C[C@H]4C(C)(C)CCC[C@]4(C)C(=CC1)[C@]23C
786-0 renal
  GI50: 41.5 µM
  TGI: > 100 µM
A498 renal
  GI50: 67.5 µM
  TGI: > 100 µM
A549 NSCLC
  GI50: 36.8 µM
  TGI: > 100 µM
ACHN renal
  GI50: 72 µM
  TGI: > 100 µM
BT-549 breast
  GI50: 48.9 µM
  TGI: > 100 µM
CAKI-1 renal
  GI50: 19.5 µM
  TGI: 52.1 µM
CCRF-CEM leukemia
  GI50: 21.6 µM
  TGI: 46.4 µM
COLO 205 colon
  GI50: 28.2 µM
  TGI: 71 µM
DU-145 prostate
  GI50: 44 µM
  TGI: > 100 µM
EKVX NSCLC
  GI50: 45.5 µM
  TGI: > 100 µM
HCT-116 colon
  GI50: 22.5 µM
  TGI: 51.3 µM
HCT-15 colon
  GI50: 41.7 µM
  TGI: > 100 µM
HOP-62 NSCLC
  GI50: 45.1 µM
  TGI: > 100 µM
HOP-92 NSCLC
  GI50: 8.2 µM
  TGI: 44.7 µM
HS 578T breast
  GI50: 47 µM
  TGI: > 100 µM
HT29 colon
  GI50: 48.4 µM
  TGI: > 100 µM
IGROV1 ovarian
  GI50: 60.7 µM
  TGI: > 100 µM
KM12 colon
  GI50: 21.4 µM
  TGI: 74.1 µM
LOX IMVI melanoma
  GI50: 36.4 µM
  TGI: > 100 µM
M14 melanoma
  GI50: 32.6 µM
  TGI: > 100 µM
MALME-3M melanoma
  GI50: 12.1 µM
  TGI: 68.5 µM
MCF7 breast
  GI50: 44 µM
  TGI: > 100 µM
MDA-MB-231 breast
  GI50: 83 µM
  TGI: > 100 µM
MDA-MB-435
  GI50: 16.7 µM
  TGI: 37.5 µM
MOLT-4 leukemia
  GI50: 5.48 µM
  TGI: 30.5 µM
NCI-H226 lung
  GI50: 56.5 µM
  TGI: > 100 µM
NCI-H23 lung
  GI50: 29.8 µM
  TGI: > 100 µM
NCI-H460 lung
  GI50: 51.1 µM
  TGI: > 100 µM
NCI-H522 lung
  GI50: 29.4 µM
  TGI: > 100 µM
OVCAR-3 ovarian
  GI50: 11.1 µM
  TGI: 32.2 µM
OVCAR-4 ovarian
  GI50: 62.1 µM
  TGI: > 100 µM
OVCAR-5 ovarian
  GI50: 21.8 µM
  TGI: > 100 µM
OVCAR-8 ovarian
  GI50: 40.2 µM
  TGI: > 100 µM
PC-3 prostate
  GI50: 0.229 µM
  TGI: 0.692 µM
RPMI-8226 leukemia
  GI50: 13.6 µM
  TGI: 29.9 µM
RXF 393 renal
  GI50: 50.9 µM
  TGI: > 100 µM
SF-268 CNS
  GI50: 98.3 µM
  TGI: > 100 µM
SF-295 CNS
  GI50: 14.9 µM
  TGI: 37.6 µM
SF-539 CNS
  GI50: 72.7 µM
  TGI: > 100 µM
SK-MEL-28 melanoma
  GI50: 45.3 µM
  TGI: > 100 µM
SK-MEL-5 melanoma
  GI50: 20.8 µM
  TGI: 43.2 µM
SN12C renal
  GI50: 35.1 µM
  TGI: > 100 µM
SNB-19 CNS
  GI50: 46.8 µM
  TGI: > 100 µM
SNB-75 CNS
  GI50: 20.4 µM
  TGI: 50.9 µM
SW-620 colon
  GI50: 39.5 µM
  TGI: > 100 µM
T-47D breast
  GI50: 41.5 µM
  TGI: > 100 µM
TK-10 renal
  GI50: 42.8 µM
  TGI: > 100 µM
U251 CNS
  GI50: 43.4 µM
  TGI: > 100 µM
UACC-257 melanoma
  GI50: 35.7 µM
  TGI: > 100 µM
UACC-62 melanoma
  GI50: 41.9 µM
  TGI: > 100 µM
UO-31 renal
  GI50: 60.7 µM
  TGI: > 100 µM

## O=C(Nc1ccc([N+](=O)[O-])cc1)c1ccc([N+](=O)[O-])cc1
SF-295 CNS
  TGI: > 100 µM
SNB-75 CNS
  TGI: > 100 µM
